Experimental data: patent US11959929B2, “Method of quantifying lysergic acid diethylamide (LSD) and 2,3-dihydro-3-hydroxy-2-oxo lysergide (O-H-LSD) in human plasma” (Universitatsspital Basel, priority 2020, dated 2024)
Where “and” joins values, the source holds several entries; their conditions need not be identical. Identical values can stand only once.

How the values were obtained:
[1] = Bench-top (short-term) stability test in human plasma, 8 hours at ambient temperature; format: physicochemical; details: for Change in concentration [%]: 8 h at RT vs Baseline; for Accuracy: single QC replicate
From the text: (§1) Each analyte had to be stable in human plasma for at least three freeze-thaw cycles (for repeated sample preparations) and at ambient temperature for at least eight hours (maximal duration of sample preparation). Measured samples should be stable for a second injection when the first analytical run was not valid. The analytes had to be stable in the matrix at the intended storage temperatures and study duration.
(§2) An analyte was considered stable at one of the above tests when no increase or decrease of the analyte concentration of more than 15% for the mean of at least three analyzed QC samples at low, medium and at high concentration was observed.
Seven of each LLOQ, QCLOW, QCMID, QCHIGH, and ULOQ samples in human plasma were thawed at ambient temperature and kept at this temperature for 8 hours. Afterwards, the samples were worked up and analyzed. The values of the concentrations in the “short-term” samples were compared with freshly processed QC samples. Concentrations were calculated based on two freshly prepared CAL sets measured at the beginning and the end of the validation run.

[2] = Reinjection reproducibility of worked-up plasma samples (overnight at 10° C. in autosampler; 1 week at −20° C.); format: physicochemical, human; details: for Change in concentration: 1 night at 10° C. in the autosampler vs Baseline; for Change in concentration [%]: 8 days at −20° C. vs Baseline; for Accuracy: single QC replicate
From the text: as §1, §2
Worked-up and measured Cal and QC samples (prepared in human plasma) of a valid run were repeatedly analyzed. Reinjection was performed after overnight storage at 10° C. (autosampler) and after 1-week storage at −20° C. The run was checked according to the acceptance criteria for validation runs. The calculated mean values for QC samples were compared between the original and reinjected run.

[3] = LLOQ: 10 pg/ml, reinjection after 8 days at −20° C.
[4] = QCHIGH: 1000 pg/ml, reinjection after 8 days at −20° C.
[5] = QCLOW: 25 pg/ml, reinjection after 8 days at −20° C.
[6] = QCMID: 100 pg/ml, reinjection after 8 days at −20° C.
[7] = ULOQ: 10000 pg/ml, reinjection after 8 days at −20° C.

In the case of `CCN(CC)C(=O)C1C=C2c3cccc4c3C(O)(C[C@H]2N(C)C1)C(=O)N4` (stereo partly drawn) [O-H-LSD, 2,3-dihydro-3-hydroxy-2-oxo lysergide], the “Accuracy, Intra-assay Mean” value ([1]; QCMID: 100 pg/ml, 8 h at RT) is reported as 95.8%, the “Found at, Intra-assay Mean” value ([1]; QCMID: 100 pg/ml, 8 h at RT) is reported as 95.8 pg/mL and the “Change in concentration [%]” value ([1]; QCMID: 100 pg/ml) is reported as 0.652%. For the same compound, the Accuracy ([1]; QCMID: 100 pg/ml, 8 h at RT) was 97.1% and 91.5% and 95.2% and 98.3% and 94.6% and 99.6% and 94.5%, the “Accuracy, Intra-assay Mean” value ([1]; QCMID: 100 pg/ml, Baseline) was 95.2% and the “Found at, Intra-assay Mean” value ([1]; QCMID: 100 pg/ml, Baseline) was 95.2 pg/mL. The Accuracy ([1]; QCMID: 100 pg/ml, Baseline) was 95.7% and 98.6% and 91.4%, the “Accuracy, Intra-assay Mean” value ([1]; ULOQ: 10000 pg/ml, 8 h at RT) was 91.1% and the “Found at, Intra-assay Mean” value ([1]; ULOQ: 10000 pg/ml, 8 h at RT) was 9110 pg/mL. The “Change in concentration [%]” value ([1]; ULOQ: 10000 pg/ml) was −4.52%, the Accuracy ([1]; ULOQ: 10000 pg/ml, 8 h at RT) was 90.2% and 93% and 90.7% and 88.2% and 93.2% and 91.5% and 91.1% and the “Accuracy, Intra-assay Mean” value ([1]; ULOQ: 10000 pg/ml, Baseline) was 95.4%. The “Found at, Intra-assay Mean” value ([1]; ULOQ: 10000 pg/ml, Baseline) was 9540 pg/mL, the Accuracy ([1]; ULOQ: 10000 pg/ml, Baseline) was 94.2% and 92.3% and 99.7% and the “Change in plasma concentration after 8 hours storage at room temperature” value ([1]; human plasma QC samples, 8 hours at room temperature, vs freshly processed QC) was ≤ 4.52%. For the same compound, the Change in concentration ([2]; LLOQ: 10 pg/ml) was 1.86%, the Change in concentration ([2]; QCHIGH: 1000 pg/ml) was 2.08% and the Change in concentration ([2]; QCLOW: 25 pg/ml) was −0.149%. For the same compound, the Change in concentration ([2]; QCMID: 100 pg/ml) was −1.59%, the Change in concentration ([2]; ULOQ: 10000 pg/ml) was 0.101% and the “Change in concentration [%]” value ([2]; LLOQ: 10 pg/ml) was −2.09%. The “Accuracy, Intra-assay Mean” value ([2]; LLOQ: 10 pg/ml, Baseline) was 107%, the “Found at, Intra-assay Mean” value ([2]; LLOQ: 10 pg/ml, Baseline) was 10.7 pg/mL and the Accuracy ([2]; LLOQ: 10 pg/ml, Baseline) was 108% and 113% and 102% and 88.5% and 120% and 97.8% and 116%. For the same compound, the “Accuracy, Intra-assay Mean” value [2, 3] was 104%, the “Found at, Intra-assay Mean” value [2, 3] was 10.4 pg/mL and the Accuracy [2, 3] was 99.5% and 106% and 116% and 107% and 94.2% and 93.9% and 113%. For the same compound, the “Change in concentration [%]” value ([2]; QCHIGH: 1000 pg/ml) was −1.05%, the “Accuracy, Intra-assay Mean” value ([2]; QCHIGH: 1000 pg/ml, Baseline) was 103% and the “Found at, Intra-assay Mean” value ([2]; QCHIGH: 1000 pg/ml, Baseline) was 1030 pg/mL. For the same compound, the Accuracy ([2]; QCHIGH: 1000 pg/ml, Baseline) was 103% (2×) and 105% (2×) and 99.6% and 99% and 106%, the “Accuracy, Intra-assay Mean” value [2, 4] was 102% and the “Found at, Intra-assay Mean” value [2, 4] was 1020 pg/mL. For the same compound, the Accuracy [2, 4] was 101% (2×) and 105% and 99.3% and 100% and 102% and 104%, the “Change in concentration [%]” value ([2]; QCLOW: 25 pg/ml) was −0.294% and the “Accuracy, Intra-assay Mean” value ([2]; QCLOW: 25 pg/ml, Baseline) was 105%. The “Found at, Intra-assay Mean” value ([2]; QCLOW: 25 pg/ml, Baseline) was 26.2 pg/mL, the Accuracy ([2]; QCLOW: 25 pg/ml, Baseline) was 103% and 116* % and 108% (2×) and 109% and 101% and 100% and the “Accuracy, Intra-assay Mean” value [2, 5] was 105%. The “Found at, Intra-assay Mean” value [2, 5] was 26.1 pg/mL, the Accuracy [2, 5] was 104% (2×) and 115% and 109% and 96.5% and 108% and 97.3% and the “Change in concentration [%]” value ([2]; QCMID: 100 pg/ml) was 1.9%. The “Accuracy, Intra-assay Mean” value ([2]; QCMID: 100 pg/ml, Baseline) was 103%, the “Found at, Intra-assay Mean” value ([2]; QCMID: 100 pg/ml, Baseline) was 103 pg/mL and the Accuracy ([2]; QCMID: 100 pg/ml, Baseline) was 101% and 102% (2×) and 104% and 106% and 108% and 98.5%. For the same compound, the “Accuracy, Intra-assay Mean” value [2, 6] was 105%, the “Found at, Intra-assay Mean” value [2, 6] was 105 pg/mL and the Accuracy [2, 6] was 109% (2×) and 98% and 104% and 106% and 102% and 107%. For the same compound, the “Change in concentration [%]” value ([2]; ULOQ: 10000 pg/ml) was −1.27%, the “Accuracy, Intra-assay Mean” value ([2]; ULOQ: 10000 pg/ml, Baseline) was 100% and the “Found at, Intra-assay Mean” value ([2]; ULOQ: 10000 pg/ml, Baseline) was 10000 pg/mL. For the same compound, the Accuracy ([2]; ULOQ: 10000 pg/ml, Baseline) was 101% (2×) and 98.5% and 98.4% and 97.7% and 102% (2×), the “Accuracy, Intra-assay Mean” value [2, 7] was 98.8% and the “Found at, Intra-assay Mean” value [2, 7] was 9880 pg/mL. The Accuracy [2, 7] was 97.3% and 97.6% and 97.5% and 96.9% and 103% and 98.8% and 101%, the “Deviations of the means of the QCs of the two runs (reinjection) after 8 days at −20° C.” value ([2]; worked-up human plasma samples, 8 days at −20° C.) was −2.09% to +1.9 and the “Deviations of the means of the QCs of the two runs (reinjection) after overnight storage at 10° C.” value ([2]; worked-up human plasma samples, overnight at 10° C. in the autosampler) was −1.59% to +2.08.
